From patent publication EP2100894A1, “Pyridopyrimidines used as Plk1 (polo-like kinase) inhibitors” (4SC AG, priority 2008, dated 2009) come the findings set out here.

T1 sequence (P53350 whole entry): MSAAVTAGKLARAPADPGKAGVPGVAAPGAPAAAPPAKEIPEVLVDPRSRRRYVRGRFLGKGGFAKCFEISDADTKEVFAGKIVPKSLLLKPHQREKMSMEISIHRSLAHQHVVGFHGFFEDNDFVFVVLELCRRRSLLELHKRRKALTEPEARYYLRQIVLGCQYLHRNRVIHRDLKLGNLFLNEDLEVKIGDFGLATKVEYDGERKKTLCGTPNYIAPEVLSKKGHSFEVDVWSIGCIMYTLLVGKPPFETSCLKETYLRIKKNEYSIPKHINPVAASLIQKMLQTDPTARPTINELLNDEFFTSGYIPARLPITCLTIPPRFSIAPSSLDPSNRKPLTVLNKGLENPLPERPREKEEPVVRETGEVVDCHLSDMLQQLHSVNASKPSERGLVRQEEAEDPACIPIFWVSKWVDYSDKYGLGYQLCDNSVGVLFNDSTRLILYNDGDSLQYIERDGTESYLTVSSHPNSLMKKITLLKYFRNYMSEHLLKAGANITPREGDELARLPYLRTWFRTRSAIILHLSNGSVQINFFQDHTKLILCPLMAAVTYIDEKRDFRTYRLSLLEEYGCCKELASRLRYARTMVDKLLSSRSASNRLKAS

The test has as its target T1, PIk1 (Homo sapiens, UniProt P53350).
T1 construct: His tag (histidine tag) (N); made in house; host or cells: SF9 insect cells
The test can be described thus: PIk1 kinase activity inhibition assay (33P incorporation into alpha casein, flash plates). The test is classed as biochemical. The settings on record: recombinant N-terminally histidine-tagged PIk1, alpha casein as substrate, 100 nM Li-ATP, 80 minutes at 30°C. The gist of the method:
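N-terminally His-tagged human Plk1 from SF9 cells (50–100 ng/well) phosphorylated alpha casein with 100 nM Li-ATP plus 33P-ATP in HEPES pH 7.5, MgCl2/MnCl2 buffer for 80 minutes at 30°C. After H3PO4 stop and washing, casein-bound 33P was counted on scintillator-coated flash plates to derive IC50.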
For orientation: IC50 means the midpoint of a concentration-inhibition curve. For `COc1cc(C(=O)NC2CCN(C)CC2)ccc1Nc1ncc2c(n1)c(-c1ccncc1)c(OCC1CC1)c(=O)n2C` [Example 68, 4-{[7-(cyclopropylmethoxy)-5-methyl-6-oxo-8-pyridin-4-yl-5,6-dihydro-pyrido[3,2-d]pyrimidin-2-yl]amino}-3-methoxy-N-(1-methylpiperidin-4-yl)benzamide], the half-inhibitory concentration (IC50) was < 10 nM. As for `COc1cc(C(=O)NC2CCN(C)CC2)ccc1Nc1ncc2c(n1)c(-c1cccnc1)c(OCC1CC1)c(=O)n2C` [Example 69, 4-{[7-(cyclopropylmethoxy)-5-methyl-6-oxo-8-pyridin-3-yl-5,6-dihydro-pyrido[3,2-d]pyrimidin-2-yl]amino}-3-methoxy-N-(1-methylpiperidin-4-yl)benzamide], the figure is < 10 nM.

In the case of `CN1CCC(NC(=O)c2ccc(Nc3ncc4c(n3)c(-c3ccsc3)c(OCC3CC3)c(=O)n4C)c(Cl)c2)CC1` [Example 70, 3-chloro-4-{[7-(cyclopropylmethoxy)-5-methyl-6-oxo-8-(3-thienyl)-5,6-dihydropyrido[3,2-d]pyrimidin-2-yl]amino}-N-(1-methylpiperidin-4-yl)benzamide], the IC50 is < 10 nM. The result for `COc1cc(C(=O)NC2CCN(C)CC2)ccc1Nc1ncc2c(n1)c(-c1ccccc1C)c(OCC1CC1)c(=O)n2C` [Example 71, 4-{[7-(cyclopropylmethoxy)-5-methyl-8-(2-methylphenyl)-6-oxo-5,6-dihydropyrido[3,2-d]pyrimidin-2-yl]amino}-3-methoxy-N-(1-methylpiperidin-4-yl)benzamide] reads < 100 nM; that for `CCc1cc(C(=O)NC2CCN(C)CC2)ccc1Nc1ncc2c(n1)c(-c1ccsc1)c(OCC1CC1)c(=O)n2C` [Example 72, 4-{[7-(cyclopropylmethoxy)-5-methyl-6-oxo-8-(3-thienyl)-5,6-dihydro-pyrido[3,2-d]pyrimidin-2-yl]amino}-3-ethyl-N-(1-methylpiperidin-4-yl)benzamide], < 10 nM. In the case of `COc1cc(C(=O)NC2CCN(C)CC2)ccc1Nc1ncc2c(n1)c(-c1ccc[nH]1)c(OCC1CC1)c(=O)n2C` [Example 73, 4-{[7-(cyclopropylmethoxy)-5-methyl-6-oxo-8-(1H-pyrrol-2-yl)-5,6-dihydro-pyrido[3,2-d]pyrimidin-2-yl]amino}-3-methoxy-N-(1-methylpiperidin-4-yl)benzamide], the half-inhibitory concentration (IC50) is < 10 nM. As for `COc1cc(C(=O)NC2CCN(C)CC2)ccc1Nc1ncc2c(n1)c(-c1ccccn1)c(OCC1CC1)c(=O)n2C` [Example 74, 4-{[7-(cyclopropylmethoxy)-5-methyl-6-oxo-8-pyridin-2-yl-5,6-dihydro-pyrido[3,2-d]pyrimidin-2-yl]amino}-3-methoxy-N-(1-methylpiperidin-4-yl)benzamide], the figure is < 10 nM; as for `CCOc1cc(C(=O)NC2CCN(C)CC2)ccc1Nc1ncc2c(n1)c(-c1ccsc1)c(OCC1CC1)c(=O)n2C` [Example 75, 4-{[7-(cyclopropylmethoxy)-5-methyl-6-oxo-8-(3-thienyl)-5,6-dihydro-pyrido[3,2-d]pyrimidin-2-yl]amino}-3-ethoxy-N-(1-methylpiperidin-4-yl)benzamide], < 10 nM; as for `COc1cc(C(=O)NC2CCN(C)CC2)ccc1Nc1ncc2c(n1)c(-c1cc[nH]c1)c(OCC1CC1)c(=O)n2C` [Example 76, 4-{[7-(cyclopropylmethoxy)-5-methyl-6-oxo-8-(1H-pyrrol-3-yl)-5,6-dihydro-pyrido[3,2-d]pyrimidin-2-yl]amino}-3-methoxy-N-(1-methylpiperidin-4-yl)benzamide], < 10 nM.
